Legend:
β1‐containing channels = system: β1‐containing channels; design: method as in Khom et al., 2007; conditions: ref Khom et al., 2007; cited from earlier work
GABAA receptors = system: GABAA receptors; design: method as in Khom et al., 2007; conditions: high concentrations; ref Khom et al., 2007; cited from earlier work
[1] = target: α1L268Aβ3γ2S GABAA receptor (Rattus norvegicus, UniProt P62813+P63079, L295A); assay: I GABA enhancement by VA, two-microelectrode voltage clamp in Xenopus oocytes; type: cell-based
Text: (§1) […]. […] Concentration‐response curves were generated, and the data were fitted by non‐linear regression analysis using ORIGIN software (OriginLab Corporation, Northampton, MA, USA). Data were fitted to the Hill equation: y=min+max−min*x^n/k^nH+x^nH k corresponds to the EC50 value; x‐values are logs of concentration, and n H is the Hill coefficient. Each data point represents the mean ± SEM from ≥3 oocytes and two oocyte batches.
(§2) Follicle membranes covering oocytes were enzymatically digested with 2 mg·mL^−1 collagenase (type 1A). Mutations β3T262A, β3T262S, β3N265S, β3T266A, β3R269A, β3M286A, β3M286W and β3F289S in the β3‐subunit and α1I227A, α1L231A, α1M235A, α1M235W and α1L268A in the α1 subunit were introduced by site‐directed mutagenesis using the QuikChange mutagenesis kit (Agilent Technologies, Vienna, Austria). The coding regions of plasmids were sequenced before experimental use. After cDNA linearization, capped cRNA transcripts were produced using the mMESSAGE mMACHINE® T7 transcription kit (Life Technologies). Capped transcripts were polyadenylated using yeast poly(A)polymerase, diluted in nuclease‐free water and stored before injection at −80°C.
(§3) One day after isolation, the oocytes were injected with about 10–50 nL of nuclease‐free water containing the different rat cRNAs (100–2000 ng·μL^−1 per subunit). For expression of wild‐type α1β3γ2S and mutant receptors, cRNAs were mixed in a ratio of 1:1:10 (Boileau et al., 2002). Electrophysiological experiments were performed using the two‐microelectrode voltage clamp technique at a holding potential of −70 mV making use of a TURBO TEC 01C amplifier (NPI Electronic, Tamm, Germany) and an Axon Digidata 1322A interface (Molecular Devices, Sunnyvale, CA, USA). Data acquisition was carried out using PCLAMP v.9.2 (Molecular Devices, Sunnyvale, CA). The bath solution contained 90 mM NaCl, 1 mM KCl, 1 mM MgCl2, 1 mM CaCl2 and 5 mM HEPES (adjusted to pH 7.4 using 1 M NaOH). Microelectrodes were filled with 2 M KCl and had resistances between 1 and 3 MΩ (Khom et al., 2006).
(§4) Drug or control solutions were applied by means of a TECAN Miniprep 60 permitting automation of the experiments. […] […]. Oocytes with maximal current amplitudes >5 μA were discarded to exclude voltage‐clamp errors (Khom et al., 2006).

[2] = target: α1β3M286Wγ2S GABAA receptor (Rattus norvegicus, UniProt P62813+P63079, M311W); assay: as above; type: cell-based
Text: as §1, §2, §3, §4

[3] = target: α1M235Aβ3γ2S GABAA receptor (Rattus norvegicus, UniProt P62813+P63079, M262A); assay: as above; type: cell-based
Sequence of α1M235Aβ3γ2S GABAA receptor (P62813 28-455 M262A): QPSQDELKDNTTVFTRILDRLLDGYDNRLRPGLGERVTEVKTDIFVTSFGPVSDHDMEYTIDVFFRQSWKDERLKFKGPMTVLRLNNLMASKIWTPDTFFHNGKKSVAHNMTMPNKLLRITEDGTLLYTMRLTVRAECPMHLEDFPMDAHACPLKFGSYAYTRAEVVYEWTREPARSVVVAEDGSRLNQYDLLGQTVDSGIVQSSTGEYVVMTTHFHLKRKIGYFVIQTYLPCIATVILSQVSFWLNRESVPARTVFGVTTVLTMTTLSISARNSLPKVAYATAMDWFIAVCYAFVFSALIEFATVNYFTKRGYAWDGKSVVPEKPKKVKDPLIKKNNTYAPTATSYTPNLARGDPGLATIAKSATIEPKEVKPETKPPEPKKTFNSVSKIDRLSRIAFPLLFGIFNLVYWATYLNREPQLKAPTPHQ
Sequence of α1M235Aβ3γ2S GABAA receptor (P63079 26-473): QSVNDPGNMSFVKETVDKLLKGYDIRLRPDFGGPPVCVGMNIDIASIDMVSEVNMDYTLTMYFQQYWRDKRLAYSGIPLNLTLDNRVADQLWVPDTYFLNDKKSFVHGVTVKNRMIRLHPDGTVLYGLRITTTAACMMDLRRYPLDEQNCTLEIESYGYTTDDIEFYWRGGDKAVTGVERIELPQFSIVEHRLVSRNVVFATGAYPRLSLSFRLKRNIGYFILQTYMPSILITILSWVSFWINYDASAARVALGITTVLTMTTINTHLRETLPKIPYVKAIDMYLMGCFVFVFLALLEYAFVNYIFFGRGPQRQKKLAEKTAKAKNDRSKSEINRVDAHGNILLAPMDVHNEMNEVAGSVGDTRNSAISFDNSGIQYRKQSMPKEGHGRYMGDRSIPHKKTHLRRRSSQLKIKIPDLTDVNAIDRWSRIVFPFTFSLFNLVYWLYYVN
Sequence of α1M235Aβ3γ2S GABAA receptor (P18508 39-466 partner): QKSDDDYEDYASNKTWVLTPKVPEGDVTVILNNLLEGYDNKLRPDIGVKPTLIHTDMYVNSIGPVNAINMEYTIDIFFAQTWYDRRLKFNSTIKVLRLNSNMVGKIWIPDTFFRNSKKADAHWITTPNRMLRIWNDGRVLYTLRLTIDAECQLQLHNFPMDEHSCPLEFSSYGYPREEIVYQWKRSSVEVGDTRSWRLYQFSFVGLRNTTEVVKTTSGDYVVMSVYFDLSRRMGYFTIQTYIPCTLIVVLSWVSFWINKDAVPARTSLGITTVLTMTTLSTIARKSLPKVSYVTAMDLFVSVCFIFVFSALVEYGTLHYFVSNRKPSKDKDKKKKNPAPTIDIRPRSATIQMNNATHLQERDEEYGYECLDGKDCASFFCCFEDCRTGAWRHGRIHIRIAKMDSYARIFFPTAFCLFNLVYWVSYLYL
Text: as §1, §2, §3, §4

[4] = target: α1β3N265Sγ2S GABAA receptor (Rattus norvegicus, UniProt P62813+P63079, N290S); assay: as above; type: cell-based
Text: as §1, §2, §3, §4

[5] = target: α1I227Aβ3γ2S GABAA receptor (Rattus norvegicus, UniProt P62813+P63079, I254A); assay: as above; type: cell-based
Text: as §1, §2, §3, §4

α1β3γ2S GABAA receptor = α1β3γ2S GABAA receptor (Rattus norvegicus, UniProt P62813+P63079); assay: as above; type: cell-based
Text: as §1, §2, §3, §4

[6] = target: α1β3T266Aγ2S GABAA receptor (Rattus norvegicus, UniProt P62813+P63079, T291A); assay: as above; type: cell-based
Text: as §1, §2, §3, §4

[7] = target: α1β3F289Sγ2S GABAA receptor (Rattus norvegicus, UniProt P62813+P63079, F314S); assay: as above; type: cell-based
Text: as §1, §2, §3, §4

[8] = target: α1L231Aβ3γ2S GABAA receptor (Rattus norvegicus, UniProt P62813+P63079, L258A); assay: as above; type: cell-based
Sequence of α1L231Aβ3γ2S GABAA receptor (P62813 28-455 L258A): as the sequence (P62813 28-455 M262A) above, with L231A, A235M counted along it
Sequence of α1L231Aβ3γ2S GABAA receptor (P63079 26-473): as the sequence (P63079 26-473) above
Sequence of α1L231Aβ3γ2S GABAA receptor (P18508 39-466 partner): as the sequence (P18508 39-466 partner) above
Text: as §1, §2, §3, §4

[9] = target: α1β3T262Sγ2S GABAA receptor (Rattus norvegicus, UniProt P62813+P63079, T287S); assay: as above; type: cell-based
Text: as §1, §2, §3, §4

[10] = target: α1β3M286Aγ2S GABAA receptor (Rattus norvegicus, UniProt P62813+P63079, M311A); assay: as above; type: cell-based
Text: as §1, §2, §3, §4

[11] = target: α1β3R269Aγ2S GABAA receptor (Rattus norvegicus, UniProt P62813+P63079, R294A); assay: as above; type: cell-based
Text: as §1, §2, §3, §4

[12] = target: α1M235Wβ3γ2S GABAA receptor (Rattus norvegicus, UniProt P62813+P63079, M262W); assay: as above; type: cell-based
Sequence of α1M235Wβ3γ2S GABAA receptor (P62813 28-455 M262W): as the sequence (P62813 28-455 M262A) above, with A235W counted along it
Sequence of α1M235Wβ3γ2S GABAA receptor (P63079 26-473): as the sequence (P63079 26-473) above
Sequence of α1M235Wβ3γ2S GABAA receptor (P18508 39-466 partner): as the sequence (P18508 39-466 partner) above
Text: as §1, §2, §3, §4

[13] = target: α1β3T262Aγ2S GABAA receptor (Rattus norvegicus, UniProt P62813+P63079, T287A); assay: as above; type: cell-based
Text: as §1, §2, §3, §4

[14] = read-out: Emax of I GABA enhancement

SMILES: CC1=C2[C@H](/C=C(\C)C(=O)O)CC[C@@H](C)[C@H]2CC1 [VA, valerenic acid]
- effects on β1‐containing channels (β1‐containing channels): negligible effects
- concentration at which VA directly activates GABAA receptors (GABAA receptors): ≥ 30 µM
- concentration at which VA inhibits GABAA receptors (GABAA receptors): ≥ 100 µM
- EC50 [1]: 19.9 ± 5.6 µM
- Emax [1, 14]: 582 ± 80%
- n H (Hill coefficient, I GABA enhancement) ([1]; α1L268Aβ3γ2S, GABA EC3–7, mean ± SEM): 1.06 ± 0.13
- Emax [2, 14]: 67 ± 35%
- modulatory effects on I GABA (in words) ([2]; α1β3M286Wγ2S, GABA EC3–7): did not display any significant modulatory effects
- EC50 [3]: 21.1 ± 2.8 µM
- Emax [3, 14]: 546 ± 28%
- n H (Hill coefficient, I GABA enhancement) ([3]; α1M235Aβ3γ2S, GABA EC3–7, mean ± SEM): 1.19 ± 0.08
- EC50 [4]: 143 ± 67.5 µM
- Emax [4, 14]: 134 ± 32%
- reduction of efficacy of IGABA enhancement versus wild type ([4]; α1β3N265Sγ2S versus α1β3γ2S): approximately fivefold reduced
- reduction of potency of IGABA enhancement versus wild type ([4]; α1β3N265Sγ2S versus α1β3γ2S): sevenfold reduction
- n H (Hill coefficient, I GABA enhancement) ([4]; α1β3N265Sγ2S, GABA EC3–7, mean ± SEM): 1.33 ± 0.39
- EC50 [5]: 40.8 ± 8.4 µM
- Emax [5, 14]: 776 ± 60%
- n H (Hill coefficient, I GABA enhancement) ([5]; α1I227Aβ3γ2S, GABA EC3–7, mean ± SEM): 1.13 ± 0.08
- EC50 (α1β3γ2S GABAA receptor): 20.2 ± 5.2 µM
- Emax (α1β3γ2S GABAA receptor; [14]): 632 ± 88%
- n H (Hill coefficient, I GABA enhancement) (α1β3γ2S GABAA receptor; α1β3γ2S, GABA EC3–7, mean ± SEM): 1.50 ± 0.29
- EC50 [6]: 7.5 ± 1.5 µM
- Emax [6, 14]: 666 ± 55%
- n H (Hill coefficient, I GABA enhancement) ([6]; α1β3T266Aγ2S, GABA EC3–7, mean ± SEM): 1.26 ± 0.1
- EC50 [7]: 181 ± 21.6 µM
- Emax [7, 14]: 222 ± 12%
- rightward shift of VA's potency versus wild type ([7]; α1β3F289Sγ2S versus α1β3γ2S): ninefold
- n H (Hill coefficient, I GABA enhancement) ([7]; α1β3F289Sγ2S, GABA EC3–7, mean ± SEM): 1.20 ± 0.07
- EC50 [8]: 18.8 ± 4.4 µM
- Emax [8, 14]: 703 ± 82%
- n H (Hill coefficient, I GABA enhancement) ([8]; α1L231Aβ3γ2S, GABA EC3–7, mean ± SEM): 1.37 ± 0.18
- EC50 [9]: 3.4 ± 0.7 µM
- Emax [9, 14]: 578 ± 42%
- n H (Hill coefficient, I GABA enhancement) ([9]; α1β3T262Sγ2S, GABA EC3–7, mean ± SEM): 0.85 ± 0.15
- EC50 [10]: 60.1 ± 18.5 µM
- Emax [10, 14]: 283 ± 52%
- n H (Hill coefficient, I GABA enhancement) ([10]; α1β3M286Aγ2S, GABA EC3–7, mean ± SEM): 1.47 ± 0.21
- EC50 [11]: 84.1 ± 14.7 µM
- Emax [11, 14]: 259 ± 22%
- n H (Hill coefficient, I GABA enhancement) ([11]; α1β3R269Aγ2S, GABA EC3–7, mean ± SEM): 1.63 ± 0.19
- reduction of efficacy of I GABA enhancement versus wild type ([11]; β3R269 mutated to alanine versus wild type): approximately 50%
- EC50 [12]: 24.3 ± 7.7 µM
- Emax [12, 14]: 193 ± 16%
- n H (Hill coefficient, I GABA enhancement) ([12]; α1M235Wβ3γ2S, GABA EC3–7, mean ± SEM): 1.37 ± 0.34
- EC50 [13]: 2.5 ± 0.8 µM
- Emax [13, 14]: 573 ± 96%
- n H (Hill coefficient, I GABA enhancement) ([13]; α1β3T262Aγ2S, GABA EC3–7, mean ± SEM): 1.00 ± 0.16

Reference: publication PMC4988470, “Identification of the putative binding pocket of valerenic acid on GABAA receptors using docking studies and site‐directed mutagenesis” (British Journal of Pharmacology, 2015)
